According to article PMC10426190 (Breast Cancer Research : BCR, 2023):

Assays:
ERα Y537S mutant = target: T1, ERα Y537S mutant (Homo sapiens, UniProt P03372, Y537S); test: ERα degradation assay, In-Cell Western, MCF-7 Y537S; type: cell-based; conditions: 24 h
T1 construct: MCF-7 wild type and Y537S mutant cells were seeded; host or cells: MCF7 expressing ER Y537S
T1 sequence (P03372 1-595 Y537S): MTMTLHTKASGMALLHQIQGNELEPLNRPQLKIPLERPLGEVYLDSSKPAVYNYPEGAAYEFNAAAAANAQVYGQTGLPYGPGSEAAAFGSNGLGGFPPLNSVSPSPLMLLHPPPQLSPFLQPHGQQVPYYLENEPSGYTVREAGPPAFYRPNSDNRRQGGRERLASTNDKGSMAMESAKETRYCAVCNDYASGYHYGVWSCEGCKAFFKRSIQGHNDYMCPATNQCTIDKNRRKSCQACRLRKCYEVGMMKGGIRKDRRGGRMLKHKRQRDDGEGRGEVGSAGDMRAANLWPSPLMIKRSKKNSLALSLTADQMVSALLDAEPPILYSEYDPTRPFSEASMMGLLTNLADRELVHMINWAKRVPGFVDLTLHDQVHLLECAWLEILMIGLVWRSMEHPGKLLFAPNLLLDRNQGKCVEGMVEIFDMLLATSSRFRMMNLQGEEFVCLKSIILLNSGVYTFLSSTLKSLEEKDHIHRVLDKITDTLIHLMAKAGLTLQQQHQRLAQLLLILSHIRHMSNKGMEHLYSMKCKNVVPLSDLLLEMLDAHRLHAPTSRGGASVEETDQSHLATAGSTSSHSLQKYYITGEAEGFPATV
Description: MCF-7 wild type and Y537S mutant cells were seeded at a density of 5000 cells per well into flat clear bottom tissue cultured-treated 384-well plates (Greiner) in culture media and after overnight incubation cells were treated with compounds for 24 h. Then plates were fixed with 4% formaldehyde, permeabilized with ice-cold methanol, and blocked with Odyssey Blocking Buffer (LI-COR). The fixed cells were incubated with rabbit anti- ERα antibody (CST#8644S) and mouse anti-GAPDH antibody (Abcam #ab8245), washed and stained with IRDye 800 Goat anti-Rabbit IgG (Licor#926-32211) and IRDye 680 Goat anti-Mouse IgG (Licor#926-68070). ERα levels were quantitated using Sapphire RGBNIR (Azure), the acumen eX3 imaging system. […] IC50 and Emax were analyzed with IDBS XLfit.

MCF-7 WT cells = test: Viability assay (CellTiter-Glo, 7 days), MCF-7 WT; type: cell-based, human
Description: Trypsinized cells were dispensed into 384-well plates in culture media and after overnight incubation cells were treated with compounds for 7 days. Cell viability was assessed using CellTiter-Glo (Promega) according to the manufacturer’s protocol and relative luminescence units (RLU) were measured using an Envision Multilabel Reader (Perkin Elmer). […] IC50 and Imax were analyzed with IDBS XLfit.
(§1) Statistical and graphical presentations were performed using IDBS XLfit and GraphPad Prism 9. For cell proliferation assays, the IC50 was calculated by fitting a dose–response curve using a nonlinear regression model with a log(inhibitor) vs response curve fit. […] P-values < 0.05 were considered statistically significant.

[1] = tested on: GREB1, AGR3 transcription in T47D, EFM-19, HCC1500; test: ER pathway activity, RT-QPCR of GREB1 and AGR3; type: cell-based, human; conditions: 1 μM, 1 nM E2, 24 h
Description: HCC1500, T47D, and EFM-19 were cultured in hormone deprivation media with 10% charcoal-stripped FBS for at least 3 days before assay. Trypsinized cells were seeded in a 12-well plate, stimulated with 1 nM E2, and treated with/without 1 μM compounds for 24 h. Total RNA was extracted using QIAGEN RNeasy Plus Mini Kit (Qiagen), according to the manufacturer’s protocol. The concentration of RNA samples was determined using NanoDrop 8000 (Thermo Scientific). SYBR Green expression assay (Qiagen#204154) was used to quantify GREB1 (Forward primer: […]; reverse primer: […]), AGR3 (Forward primer: […]; reverse primer: […]) and the house-keeping genes actin (OriGene#HP204660). The relative quantities were determined using ΔΔ threshold cycle (ΔΔCt), according to the manufacturer’s instructions (Applied Biosystems).
MCF7 with hormone-deprived pre-treatment were administrated ER ligands or not present with 1 nM E2 stimulation for 24 h incubation in a 12-well plate. Total mRNA was isolated from treated cells and sequenced on an Illumina HiSeq X Ten platform. FPKM of each gene was calculated using Cufflinks and Differential expression genes analysis by using the DESeq (2012) R package. Four separate clusters were obtained. […] Endometrial height was assessed from the basement membrane to the luminal border (scale bar in green lines: 200 μm), Arrows indicate the uterine epithelium (e).

[2] = tested on: intracranial MCF-7 tumors; test: Intracranial MCF-7 tumor model; type: in vivo, mouse
Description: Female NPG mice were used for the intracranial MCF-7 tumor model. Three days before tumor cell implantation, estrogen pellets (0.72 mg, 17β-Estradiol, 60-day release, Innovative Research of America, Sarasota, FL, USA) were implanted subcutaneously. Each mouse was intracranially injected with 2 × 10^6 MCF-7 (ATCC) cells. […] Survival of mice was evaluated until Day 60. Mice were euthanized with weight loss exceeding 20% or moribund. On Day 60, all the mice remaining alive were euthanized. Before euthanasia, the mice were perfused with 4% paraformaldehyde and the brain tissues were collected for H&E staining using A[…] (Leica, Wetzlar, Germany).
as §1

[3] = tested on: advanced HR + /HER2- breast cancer; conditions: cited from earlier work

SMILES	ERα degradation assay Dmax [% Ful.] (ERα Y537S mutant)	ERα degradation assay Dmax [% Veh.] (ERα Y537S mutant)	Viability assay Emax [% Ful.] (MCF-7 WT cells)	Viability assay Emax [% Veh.] (MCF-7 WT cells)	IC50 (MCF-7 WT cells; Homo sapiens, MCF7, 168 h) [nM]	AGR3 and GREB1 transcription ([1]; T47D, EFM-19, and HCC1500)	median survival time ([2]; 250 mg/kg subcutaneous once a week) [days]	tumor cell infiltration in brain tissues (H&E) ([2]; Fulvestrant 250 mg/kg, SCR-6852 3 mg/kg)	median OS [3] [months]	PFS ([3]; progressed on prior ET ref 45) [months]	AGR3 transcription ([1]; EFM-19 and HCC1500)
C[C@]12CC[C@@H]3c4ccc(O)cc4C[C@@H](CCCCCCCCC[S+]([O-])CCCC(F)(F)C(F)(F)F)[C@H]3[C@@H]1CC[C@@H]2O (some centres unmarked) [Fulvestrant]	87.09	26.38	97.88	49.60	0.4	significantly downregulated	27	significant tumor cells infiltration	29.7	4.6	
CC/C(=C(\c1ccc(O)cc1)c1ccc(OCCN(C)C)cc1)c1ccccc1 [4-OH-tamoxifen]											significant increase
